The record followed here is US20050107353A1, “Methods of treating lower urinary tract disorders using losigamone” (Dynogen Pharmaceuticals, Inc., priority 2003, published 2005).

Assay [1] relates to acetic acid-induced reduction of bladder capacity. Briefly: Dilute acetic acid model: bladder capacity by filling cystometry during continuous intravesical acetic acid irritation. Type of assay: in vivo, rat. The following applies: for post-test: reversal of bladder capacity reduction: rats; for effect on bladder capacity (reversal of acetic acid-induced reduction): increasing doses, rats during continuous irritation. An excerpt: The objective of the current study was to determine the effect of TTX-R sodium channel modulators or use dependent sodium channel modulators on the ability to reverse the reduction in bladder capacity seen following continuous infusion of dilute acetic acid, a commonly used model of lower urinary tract disorders including overactive bladder.
Animal Preparation: Female rats (250-275 g BW) were anesthetized with urethane (1.2 g/kg) and a saline-filled catheter (PE-50) was inserted into either the jugular vein for intravenous (i.v.; saline vehicle) or the proximal duodenum for intraduodenal (i.d.; distilled water or 10% Tween 80 in saline as vehicle) drug administration. Via a midline lower abdominal incision, a flared-tipped PE 50 catheter was inserted into the bladder dome for bladder filling and pressure recording and secured by ligation. The abdominal cavity was moistened with saline and closed by covering with a thin plastic sheet in order to maintain access to the bladder for emptying purposes. Fine silver or stainless steel wire electrodes were inserted into the external urethral sphincter (EUS) percutaneously for electromyography (EMG).
Experimental Design: Saline was continuously infused at a rate of 0.055 ml/min via the bladder filling catheter for ≧60 minutes to obtain a baseline of lower urinary tract activity (continuous cystometry; CMG). Following the control period, a 0.25% acetic acid solution in saline was infused into the bladder at the same flow rate to induce bladder irritation. Following 30 minutes of AA infusion, 3 vehicle injections were made at 20 minute intervals to determine vehicle effects, if any. Subsequently, increasing doses (2-5) of Na^+ channel blocking compound were administered intravenously or intraduodenaly at half-log order increments at 30 or 60 minute intervals in order to construct a cumulative dose-response relationship. At the end of the control saline cystometry period, the third vehicle, and 20-50 minutes following each subsequent treatment, the infusion pump was stopped, the bladder was emptied by fluid withdrawal via the infusion catheter and a single filling cystometrogram was performed at the same flow rate in order to determine changes in bladder capacity caused by the irritation protocol and subsequent intravenous or intraduodenal drug administration.
Data were analyzed by non-parametric ANOVA for repeated measures (Friedman Test) with Dunn's Multiple Comparison test. All comparisons were made from the last vehicle measurement (AA/Veh 3) or the lowest dose of drug. P<0.050 was considered significant.

The target of assay [2] is T1, TTX-R sodium currents in bladder afferent neurons (Rattus norvegicus, UniProt Q62968).
T1 construct: Whole cell patch-clamp recordings were obtained from dye-labeled DRG neurons; endogenous in cells; host or cells: primary dissociated L6/S1 dorsal root ganglion neurons of Sprague-Dawley rats, dye-labelled bladder afferents
T1 sequence (Q62968 whole entry): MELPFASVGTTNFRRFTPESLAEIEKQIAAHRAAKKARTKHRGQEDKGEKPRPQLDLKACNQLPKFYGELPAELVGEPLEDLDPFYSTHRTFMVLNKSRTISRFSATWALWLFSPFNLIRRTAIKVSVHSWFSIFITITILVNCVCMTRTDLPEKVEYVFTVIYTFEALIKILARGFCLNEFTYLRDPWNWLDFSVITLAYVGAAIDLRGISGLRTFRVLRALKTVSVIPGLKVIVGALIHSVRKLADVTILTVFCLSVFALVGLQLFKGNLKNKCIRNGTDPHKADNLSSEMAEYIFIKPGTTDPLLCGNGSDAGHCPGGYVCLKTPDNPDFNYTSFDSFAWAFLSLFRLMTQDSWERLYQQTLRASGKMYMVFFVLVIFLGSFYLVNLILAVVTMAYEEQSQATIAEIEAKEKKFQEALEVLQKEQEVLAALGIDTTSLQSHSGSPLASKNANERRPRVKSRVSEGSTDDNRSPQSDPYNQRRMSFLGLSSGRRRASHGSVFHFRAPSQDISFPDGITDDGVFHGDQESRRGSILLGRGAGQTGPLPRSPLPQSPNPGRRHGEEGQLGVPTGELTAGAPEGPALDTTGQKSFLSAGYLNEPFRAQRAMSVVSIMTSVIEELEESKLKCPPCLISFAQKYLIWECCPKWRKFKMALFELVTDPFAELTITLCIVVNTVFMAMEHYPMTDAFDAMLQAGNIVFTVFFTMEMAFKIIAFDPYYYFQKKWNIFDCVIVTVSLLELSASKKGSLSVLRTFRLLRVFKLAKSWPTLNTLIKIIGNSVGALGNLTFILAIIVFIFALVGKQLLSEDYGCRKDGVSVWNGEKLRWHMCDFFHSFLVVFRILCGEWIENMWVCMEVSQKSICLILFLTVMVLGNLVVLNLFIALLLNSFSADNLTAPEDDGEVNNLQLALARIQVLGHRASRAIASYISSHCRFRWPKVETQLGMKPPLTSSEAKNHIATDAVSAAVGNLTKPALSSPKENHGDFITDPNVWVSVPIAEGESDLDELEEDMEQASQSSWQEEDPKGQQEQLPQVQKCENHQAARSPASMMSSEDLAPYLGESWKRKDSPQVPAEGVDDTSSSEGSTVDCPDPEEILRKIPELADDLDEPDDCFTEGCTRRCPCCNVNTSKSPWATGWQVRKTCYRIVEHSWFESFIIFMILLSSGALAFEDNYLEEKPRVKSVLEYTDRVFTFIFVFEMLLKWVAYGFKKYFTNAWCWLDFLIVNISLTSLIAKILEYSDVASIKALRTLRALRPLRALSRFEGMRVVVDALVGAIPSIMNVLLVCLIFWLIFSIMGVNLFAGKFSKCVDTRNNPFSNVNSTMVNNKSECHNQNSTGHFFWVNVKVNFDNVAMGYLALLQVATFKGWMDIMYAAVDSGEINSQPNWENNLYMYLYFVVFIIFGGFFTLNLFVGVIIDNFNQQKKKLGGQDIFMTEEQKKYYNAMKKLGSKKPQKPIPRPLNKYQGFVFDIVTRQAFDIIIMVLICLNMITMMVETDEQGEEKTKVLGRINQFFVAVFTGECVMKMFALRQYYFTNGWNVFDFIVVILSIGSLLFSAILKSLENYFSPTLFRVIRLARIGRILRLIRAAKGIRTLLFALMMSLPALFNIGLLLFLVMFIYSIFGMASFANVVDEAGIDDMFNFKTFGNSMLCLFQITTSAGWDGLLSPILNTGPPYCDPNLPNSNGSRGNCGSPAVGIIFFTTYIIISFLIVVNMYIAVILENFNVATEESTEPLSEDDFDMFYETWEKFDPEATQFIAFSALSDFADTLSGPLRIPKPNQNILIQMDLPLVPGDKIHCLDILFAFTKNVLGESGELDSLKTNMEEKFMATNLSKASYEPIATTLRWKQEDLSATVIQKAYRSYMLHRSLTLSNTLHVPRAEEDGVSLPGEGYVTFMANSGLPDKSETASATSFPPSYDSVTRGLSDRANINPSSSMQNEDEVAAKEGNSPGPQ
Kind of assay: Bladder sensory neuron sodium channel current model: whole cell patch-clamp of TTX-R sodium currents. Format: cell-based. How it is done: Labeling of bladder afferent neurons: Adult female Sprague-Dawley rats (150-300 g) were deeply anesthetized with pentobarbital anesthesia and placed on isoflurane maintenance anesthesia. A ventral midline incision was made through the abdominal skin and musculature, exposing the urinary bladder. Five injections of the fluorescent dye Di-I (5 μl each of 25 mg/ml Di-I in DMSO) or Fast Blue (4% w/v) were made into the bladder smooth muscle wall to label primary afferent fibers innervating the bladder. The area was rinsed with sterile saline to eliminate nonspecific spread of dye, and the incision was closed. Rats recovered for 5-12 days to allow for transport of fluorescent dye from distal terminals to the cell somata of dorsal root ganglion (DRG) neurons. Labeled neurons were identified in vitro using fluorescence optics.
Neuronal cultures: Di-I injected rats were euthanized with pentobarbital anesthesia. Lumbar (L6) and sacral (S1) DRG were dissected from the vertebral column and placed in Dulbecco's modified Eagles medium (DMEM) containing 0.3% collagenase B for 60 min at 37° C. The cell solution was exchanged for a 0.25% trypsin in calcium/magnesium-free Dulbecco's phosphate-buffered saline solution, and further digested for 30 min at 37° C. Following a wash in fresh DMEM, ganglia were dissociated by a series of triturations using fire-polished Pasteur pipettes. DRG cells were plated on polylysine-treated glass coverslips. Cells were plated at a density of 0.5 DRG per coverslip in 1 ml DMEM supplemented with 10% FBS, NGF, and 100 U/ml penicillin/streptomycin. All experimental procedures involving rats were conducted under a protocol approved by an Institutional Animal Care and Use Committee. Small variations in the concentrations of reagents, incubation times, etc. may occur and are expected to give similar results.
In most experiments, neurons were incubated in culture medium containing the FITC-labeled lectin BSI-B4 (IB4, […]) at 37° C. for 5 min before recording. The coverslip was washed with extracellular recording solution for 1 min before being placed in a recording chamber mounted on the stage of an inverted microscope equipped with fluorescence optics.
Electrophysiology: Electrophysiologic evaluation of neurons occurred within 4-48 h of plating. Whole cell patch-clamp recordings were obtained from dye-labeled DRG neurons. Recordings were obtained in an extracellular recording solution (pH 7.4, 295-320 mosM) consisting of (in mM) 140 NaCl, 3 KCl, 1 CaCl2, 1 MgCl2, 0.1 CdCl2, 10 HEPES, and 10 glucose. Patch-clamp electrodes were pulled from borosilicate glass and fire polished to 2-6 MOhm tip resistance. The internal pipette recording solution (pH 7.3, 290-300 mosM) consisted of (in mM) 140 CsCl, 10 NaCl, 1 EGTA, and 10 HEPES. Tetrodotoxin (TTX, 0.3 uM) was included in the extracellular solution to block TTX-sensitive sodium currents. Variations in the concentrations and types of reagents used for solutions may occur and are expected to give similar results.
Sodium currents were recorded from DRG neurons using standard electrophysiologic protocols. Neurons were typically voltage-clamped at −50 mV. Currents were recorded using a patch-clamp amplifier and digitized at 3-10 kHz for acquisition. Neuronal input resistance and membrane capacitance were determined from the amplitude and kinetics of the current response to a voltage pulse from a holding potential of −50 mV. Series resistance was compensated 75-95% for all recordings. Leak currents were cancelled online using a standard P/4 protocol. Depolarizing steps from −90, −70, or −50 mV to 0 mV were delivered every 5 or 30 sec during drug application to determine the effects of drugs on sodium currents. For all cell types, baseline responses were recorded for a minimum of 10 min to ensure that the kinetics of the response was stable. A wash out or recovery period usually followed the drug application period. […]

[3] abbreviates: 100 μM bath application, labeled bladder afferent neuron.

“Also recorded” adds a separate entry of the source. Where a name gives a salt, the structure may show the parent alone.

Take `NC(=O)N1c2ccccc2C=Cc2ccccc21` [Carbamazepine]: the “post-test: reversal of bladder capacity reduction” value in assay [1] (100 mg/kg dose, intraduodenal) is reported as “statistically significant reversal of bladder capacity reduction”. Further, the “effect on bladder capacity (reversal of acetic acid-induced reduction)” value in assay [1] (intraduodenal) is “capable of partially reversing the reduction in bladder capacity caused by acetic acid in a dose-dependent fashion; also recorded: dose-dependent and statistically significant reversal”; in assay [1] (intraduodenal, listed as carbamazepine) it was “dose-dependent, statistically significant increases in bladder capacity”.

For `CCOC(=O)C1=C[C@]2(CC)CCCN3CCc4c(n1c1ccccc41)[C@@H]32` [Vinpocetine], the “effect on bladder capacity (reversal of acetic acid-induced reduction)” value in assay [1] (intraduodenal) is on record as “not capable of significantly reversing the reduction in bladder capacity caused by acetic acid; also recorded: Neither Vinpocetine (FIG. 9) nor intravenous Tolperisone (FIG. 10) demonstrated statistically significant effects on bladder capacity”; in assay [1] (intraduodenal, listed as vinpocetine) it was “neither intraduodenal vinpocetine (n=6; 3-100 mg/kg) nor intravenous tolperisone (n=4; 3-10 mg/kg) demonstrated statistically significant effects on bladder capacity”.

Consider `Cc1cccc(C)c1OCC(C)N` (stereo not shown) [Mexiletine, 1-(2,6-Dimethylphenoxy)-2-propanamine hydrochloride], for which, in assay [1] (30 mg/kg dose, intraduodenal), the “post-test: reversal of bladder capacity reduction” value is “statistically significant reversal of bladder capacity reduction”. Moreover, the “effect on bladder capacity (reversal of acetic acid-induced reduction)” value in assay [1] (intraduodenal, hydrochloride) was “capable of partially reversing the reduction in bladder capacity caused by acetic acid in a dose-dependent fashion; also recorded: dose-dependent and statistically significant reversal”; in assay [1] (intraduodenal, listed as mexilitine, hydrochloride), “dose-dependent, statistically significant increases in bladder capacity”.

On to `C[C@H](NCc1ccc(OCc2ccccc2F)cc1)C(N)=O` [Ralfinamide, (+)-2(S)-[4-(2-Fluorobenzyloxy)benzylamino]propionamide], for which the “effect on inward TTX-R sodium current” value in assay [2] (setting [3]) is “blocked the current”. Further, in assay [2] (100 μM, three neurons, holding potential −50 mV, pulse to 0 mV), the “peak TTX-R sodium current” value was 36±6 % of control. The “post-test: reversal of bladder capacity reduction” value in assay [1] (30 mg/kg dose, intraduodenal) is “statistically significant reversal of bladder capacity reduction”. The “effect on bladder capacity (reversal of acetic acid-induced reduction)” value in assay [1] (intraduodenal) is “capable of partially reversing the reduction in bladder capacity caused by acetic acid in a dose-dependent fashion; also recorded: dose-dependent and statistically significant reversal”; in assay [1] (intraduodenal, listed as ralfinamide), “dose-dependent, statistically significant increases in bladder capacity”.

On to `Cc1ccc(C(=O)C(C)CN2CCCCC2)cc1` (stereo not shown) [Tolperisone], for which the “effect on bladder capacity (reversal of acetic acid-induced reduction)” value is “Neither Vinpocetine (FIG. 9) nor intravenous Tolperisone (FIG. 10) demonstrated statistically significant effects on bladder capacity; also recorded: not capable of significantly reversing the reduction in bladder capacity caused by acetic acid” in assay [1] (intravenous) and “neither intraduodenal vinpocetine (n=6; 3-100 mg/kg) nor intravenous tolperisone (n=4; 3-10 mg/kg) demonstrated statistically significant effects on bladder capacity” in assay [1] (intravenous, listed as tolperisone).

Consider `CN1CCN(c2ncc(-c3cc(Cl)cc(Cl)c3Cl)c(N)n2)CC1` [Sipatrigine, 4-Amino-2-(4-methylpiperazin-1-yl)-5-(2,3,5-trichlorophenyl)pyrimidine], for which the “effect on inward TTX-R sodium current” value in assay [2] (setting [3]) is listed as “blocked the current”. Further, the “concentration-response effect on TTX-R sodium current amplitude” value in assay [2] (bath application, cumulative concentrations, bladder afferent neurons) is given as “concentration-dependent reduction in current amplitude”. The “post-test: reversal of bladder capacity reduction” value in assay [1] (30 mg/kg dose, intraduodenal) is recorded as “statistically significant reversal of bladder capacity reduction”; in assay [1] (100 mg/kg dose, intraduodenal), “statistically significant reversal of bladder capacity reduction”. Besides, the “effect on bladder capacity (reversal of acetic acid-induced reduction)” value in assay [1] (intraduodenal) was “capable of partially reversing the reduction in bladder capacity caused by acetic acid in a dose-dependent fashion; also recorded: dose-dependent and statistically significant reversal”; in assay [1] (intraduodenal, listed as sipatrigine) it was “dose-dependent, statistically significant increases in bladder capacity”.

Take `COC1=CC(=O)O[C@@H]1[C@@H](O)c1ccccc1Cl` (relative stereo) [Losigamone, (5R*)-5-[(alphaS*)-o-Chloro-alpha-hydroxybenzyl]-4-methoxy-2(5H)-furanone]: the “post-test: reversal of bladder capacity reduction” value in assay [1] (300 mg/kg dose, intraduodenal) is listed as “statistically significant reversal of bladder capacity reduction”. The “effect on bladder capacity (reversal of acetic acid-induced reduction)” value in assay [1] (intraduodenal) is “capable of partially reversing the reduction in bladder capacity caused by acetic acid in a dose-dependent fashion; also recorded: dose-dependent and statistically significant reversal”; in assay [1] (intraduodenal, listed as losigamone), “dose-dependent, statistically significant increases in bladder capacity”.

With `CC1(C)O[C@@H]2[C@@H](CO[C@@]3(COS(N)(=O)=O)OC(C)(C)O[C@@H]23)O1` [Topiramate, 2,3:4,5-Bis-O-(1-methylethylidene)-1-O-sulfamoyl-beta-D-fructopyranose], the “effect on inward TTX-R sodium current” value in assay [2] (30 μM bath application, 7 minute, holding potential −70 mV, pulse to +10 mV) is recorded as “blocked the current”. For the same compound, the “post-test: reversal of bladder capacity reduction” value in assay [1] (100 mg/kg dose, intraduodenal) is given as “statistically significant reversal of bladder capacity reduction”. Moreover, the “effect on bladder capacity (reversal of acetic acid-induced reduction)” value in assay [1] (intraduodenal) was “capable of partially reversing the reduction in bladder capacity caused by acetic acid in a dose-dependent fashion; also recorded: dose-dependent and statistically significant reversal”; in assay [1] (intraduodenal, listed as topiramate), “dose-dependent, statistically significant increases in bladder capacity”.
